Test results as given in patent US20260137703A1, “2-AMINO-PYRIDO[2,3-D]PYRIMIDIN-7(8H)-ONE AND 7-AMINO-1-PYRIMIDO[4,5-D]PYRIMIDIN-2(1 H)-ONE DERIVATIVES AS EGFR INHIBITORS FOR THE TREATMENT OF CANCER” (Cancer Research Technology Limited, priority 2022, published 2026).
Like-named read-outs stand apart in the source and are kept apart here. One block for each molecule: values may come before it.

Key:
[1] = target: CtermHisTag-mEGFR Wild type (Homo sapiens, UniProt P00533)
[2] = target: T1, Phospho-EGFR (Tyr1068) in H1975 cells (Homo sapiens, UniProt P00533, L858R/T790M); experiment: HTRF pEGFR/total EGFR in H1975 cells; assay type: cell-based; settings: ratio pEGFR/total EGFR, compound 3 hours
T1 construct: host or cells: H1975
T1 sequence (P00533 25-1210 T790M/L858R): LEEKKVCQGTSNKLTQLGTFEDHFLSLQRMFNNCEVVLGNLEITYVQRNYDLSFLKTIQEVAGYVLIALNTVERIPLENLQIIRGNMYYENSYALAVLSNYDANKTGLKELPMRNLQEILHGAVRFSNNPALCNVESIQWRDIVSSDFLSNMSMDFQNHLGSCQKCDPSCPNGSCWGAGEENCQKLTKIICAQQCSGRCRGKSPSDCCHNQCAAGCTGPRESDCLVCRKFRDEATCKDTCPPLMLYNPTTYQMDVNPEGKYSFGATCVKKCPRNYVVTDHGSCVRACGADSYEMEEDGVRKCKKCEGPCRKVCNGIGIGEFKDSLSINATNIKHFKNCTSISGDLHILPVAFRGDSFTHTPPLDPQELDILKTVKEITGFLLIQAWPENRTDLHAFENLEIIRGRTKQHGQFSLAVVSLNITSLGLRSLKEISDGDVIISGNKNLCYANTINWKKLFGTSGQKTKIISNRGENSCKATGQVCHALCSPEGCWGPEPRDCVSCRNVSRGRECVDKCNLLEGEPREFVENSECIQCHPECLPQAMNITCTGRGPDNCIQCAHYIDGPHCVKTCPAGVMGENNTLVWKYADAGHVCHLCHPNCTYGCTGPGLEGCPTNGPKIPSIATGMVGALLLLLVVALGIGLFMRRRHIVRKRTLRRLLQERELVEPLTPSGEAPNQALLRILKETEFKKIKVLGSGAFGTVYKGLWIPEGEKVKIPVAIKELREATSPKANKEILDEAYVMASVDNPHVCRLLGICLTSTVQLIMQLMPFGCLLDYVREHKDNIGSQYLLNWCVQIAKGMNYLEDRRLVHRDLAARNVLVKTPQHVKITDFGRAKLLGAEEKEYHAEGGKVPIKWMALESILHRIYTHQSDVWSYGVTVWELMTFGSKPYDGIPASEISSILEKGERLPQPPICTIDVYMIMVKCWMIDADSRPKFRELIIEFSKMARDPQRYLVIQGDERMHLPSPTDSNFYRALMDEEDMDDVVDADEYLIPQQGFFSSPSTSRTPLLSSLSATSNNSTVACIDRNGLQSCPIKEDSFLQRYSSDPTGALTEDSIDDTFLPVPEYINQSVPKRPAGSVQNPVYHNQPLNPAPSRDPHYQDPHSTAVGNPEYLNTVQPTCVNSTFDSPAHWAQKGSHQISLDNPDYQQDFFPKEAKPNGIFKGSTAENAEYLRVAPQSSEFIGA
Summary of the method: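 Readout is the phospho-EGFR (Tyr1068) to total EGFR HTRF ratio, expressed relative to 0 μM control. Adhered H1975 cells were exposed to compound for 3 hours at 0.1% DMSO, duplicate wells, then lysed for 30 min at room temperature before two-wavelength fluorescence reading.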

[3] = target: T2, Phospho-EGFR (Tyr1068) in H1975 C797S cells (CRISPR-edited EGFR C797S) (Homo sapiens, UniProt P00533, C797S/L858R/T790M); experiment: HTRF pEGFR/total EGFR in H1975 C797S cells; assay type: cell-based; settings: ratio pEGFR/total EGFR, compound 3 hours
T2 construct: host or cells: H1975 C797S (CRISPR-edited)
T2 sequence (P00533 25-1210 T790M/C797S/L858R): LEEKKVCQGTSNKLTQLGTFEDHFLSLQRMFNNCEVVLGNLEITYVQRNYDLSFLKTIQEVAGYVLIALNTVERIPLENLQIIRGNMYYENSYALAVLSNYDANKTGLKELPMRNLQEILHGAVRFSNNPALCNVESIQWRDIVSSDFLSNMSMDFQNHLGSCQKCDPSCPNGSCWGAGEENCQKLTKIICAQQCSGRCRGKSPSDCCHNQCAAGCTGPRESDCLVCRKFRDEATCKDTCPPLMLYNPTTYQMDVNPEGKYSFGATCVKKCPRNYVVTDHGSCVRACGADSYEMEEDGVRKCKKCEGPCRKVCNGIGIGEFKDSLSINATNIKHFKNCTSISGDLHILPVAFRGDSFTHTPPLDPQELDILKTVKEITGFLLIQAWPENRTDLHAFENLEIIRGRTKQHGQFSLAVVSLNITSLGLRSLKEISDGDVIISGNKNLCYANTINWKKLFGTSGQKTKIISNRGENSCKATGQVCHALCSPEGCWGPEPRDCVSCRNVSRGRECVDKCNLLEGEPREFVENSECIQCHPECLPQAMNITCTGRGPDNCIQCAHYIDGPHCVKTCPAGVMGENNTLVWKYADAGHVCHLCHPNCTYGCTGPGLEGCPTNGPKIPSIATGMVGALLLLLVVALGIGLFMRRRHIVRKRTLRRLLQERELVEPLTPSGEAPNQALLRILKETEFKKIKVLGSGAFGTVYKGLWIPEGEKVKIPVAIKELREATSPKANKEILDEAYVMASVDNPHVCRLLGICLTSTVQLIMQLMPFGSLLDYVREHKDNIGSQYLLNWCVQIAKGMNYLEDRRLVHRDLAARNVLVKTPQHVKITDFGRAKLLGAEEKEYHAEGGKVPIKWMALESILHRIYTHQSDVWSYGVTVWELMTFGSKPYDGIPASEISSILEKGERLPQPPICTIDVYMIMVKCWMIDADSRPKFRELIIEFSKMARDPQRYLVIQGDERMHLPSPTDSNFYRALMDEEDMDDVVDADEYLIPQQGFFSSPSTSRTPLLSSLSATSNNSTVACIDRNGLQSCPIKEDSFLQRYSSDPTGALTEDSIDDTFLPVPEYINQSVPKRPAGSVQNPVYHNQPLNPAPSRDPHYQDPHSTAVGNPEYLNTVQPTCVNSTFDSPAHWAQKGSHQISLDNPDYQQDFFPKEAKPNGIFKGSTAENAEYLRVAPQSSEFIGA
Summary of the method: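 Readout is the HTRF-measured Tyr1068 phospho-EGFR to total EGFR ratio, normalised to the 0 μM control as percent. Preceding this, CRISPR-edited H1975 C797S cells, plated 24 h earlier, were exposed 3 h to duplicate compound doses in medium with 0.1% DMSO, then lysed on a shaker.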

CtermHisTag-mEGFR Wild type, sequence (P00533 whole entry): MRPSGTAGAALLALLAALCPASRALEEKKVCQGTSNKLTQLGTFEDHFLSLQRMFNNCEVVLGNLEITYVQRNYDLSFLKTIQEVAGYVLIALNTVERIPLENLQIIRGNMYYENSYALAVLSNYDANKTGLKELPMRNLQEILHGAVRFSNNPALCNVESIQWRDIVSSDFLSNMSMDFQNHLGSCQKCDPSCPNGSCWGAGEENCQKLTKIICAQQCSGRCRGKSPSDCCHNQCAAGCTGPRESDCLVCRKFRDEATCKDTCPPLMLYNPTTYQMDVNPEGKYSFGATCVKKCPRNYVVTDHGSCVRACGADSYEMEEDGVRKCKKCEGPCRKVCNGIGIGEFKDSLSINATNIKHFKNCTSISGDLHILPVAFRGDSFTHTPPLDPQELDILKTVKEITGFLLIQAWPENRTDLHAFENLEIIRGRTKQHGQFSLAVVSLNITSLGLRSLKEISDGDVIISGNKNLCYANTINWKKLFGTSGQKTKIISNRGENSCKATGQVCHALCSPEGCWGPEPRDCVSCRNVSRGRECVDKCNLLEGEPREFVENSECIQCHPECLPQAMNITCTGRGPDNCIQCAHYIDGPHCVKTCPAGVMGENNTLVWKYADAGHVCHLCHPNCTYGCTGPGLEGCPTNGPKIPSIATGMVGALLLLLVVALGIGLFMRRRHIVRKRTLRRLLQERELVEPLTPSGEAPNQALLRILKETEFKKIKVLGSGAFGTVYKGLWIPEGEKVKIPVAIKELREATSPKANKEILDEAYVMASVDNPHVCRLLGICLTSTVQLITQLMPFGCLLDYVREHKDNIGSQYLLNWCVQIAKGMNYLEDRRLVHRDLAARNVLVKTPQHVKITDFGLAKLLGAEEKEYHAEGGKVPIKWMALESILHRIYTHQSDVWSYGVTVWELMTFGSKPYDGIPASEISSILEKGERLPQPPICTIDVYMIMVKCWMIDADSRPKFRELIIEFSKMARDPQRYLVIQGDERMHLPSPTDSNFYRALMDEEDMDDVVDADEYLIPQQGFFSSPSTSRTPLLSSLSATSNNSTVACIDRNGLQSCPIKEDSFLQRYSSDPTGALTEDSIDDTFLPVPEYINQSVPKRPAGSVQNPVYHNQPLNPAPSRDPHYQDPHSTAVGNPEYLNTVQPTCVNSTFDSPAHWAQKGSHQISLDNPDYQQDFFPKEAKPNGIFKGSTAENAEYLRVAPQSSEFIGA

Molecule: CC1CCCCOc2cc(ccc2N2CCN(C)CC2)Nc2ncc3c(C#C[Si](C(C)C)(C(C)C)C(C)C)cc(=O)n1c3n2 (centres unmarked)
ring closure, isolated yield (from CC(O)CCCCOc1cc(Nc2ncc3c(C#C[Si](C(C)C)(C(C)C)C(C)C)cc(=O)[nH]c3n2)ccc1N1CCN(C)CC1, other bond, 14-membered ring, PPh3/DIAD, THF, 24.0 mM): 19%

Molecule: COCCN1CCN(c2ccc3cc2NC(=O)CCCn2c(=O)cc(C#C[Si](C(C)C)(C(C)C)C(C)C)c4cnc(nc42)N3)CC1
ring closure, isolated yield (from COCCN1CCN(c2ccc(Nc3ncc4c(C#C[Si](C(C)C)(C(C)C)C(C)C)cc(=O)[nH]c4n3)cc2NC(=O)CCCO)CC1, other bond, 13-membered ring, PPh3/DEAD, THF, 25.7 mM): 42%

Molecule: Cc1c(C#C[Si](C(C)C)(C(C)C)C(C)C)c2cnc3nc2n(c1=O)CC=CCOc1cccc(c1)N3
ring closure, isolated yield (from Cc1c(C#C[Si](C(C)C)(C(C)C)C(C)C)c2cnc(Nc3cccc(O)c3)nc2n(C/C=C\CO)c1=O, ether bond, 13-membered ring, PPh3/DIAD, THF, 180.0 mM): 52%

Molecule: Cc1c(C#C[Si](C(C)C)(C(C)C)C(C)C)c2cnc3nc2n(c1=O)CCCCCOc1cc(ccc1N1CCN(C)CC1)N3
ring closure, isolated yield (from Cc1c(C#C[Si](C(C)C)(C(C)C)C(C)C)c2cnc(Nc3ccc(N4CCN(C)CC4)c(OCCCCCO)c3)nc2[nH]c1=O, other bond, 14-membered ring, PPh3/DEAD, THF, 94.8 mM): 51%

Molecule: 1^6-methyl-3^4-(4-methylpiperazin-1-yl)-1^5-((triisopropylsilyl)ethynyl)-1^7,1^8-dihydro-4-oxa-2-aza-1(2,8)-pyrido[2,3-d]pyrimidina-3(1,3)-benzenacyclooctaphan-1^7-one
ring closure, isolated yield (other bond, 13-membered ring, PPh3/DIAD, THF, 107.0 mM): 56%

Molecule: 3^4-(4-(2-Methoxyethyl)piperazin-1-yl)-1^5-((triisopropylsilyl)ethynyl)-1^7,1^8-dihydro-4-oxa-2-aza-1(2,8)-pyrido[2,3-d]pyrimidina-3(1,3)-benzenacyclooctaphan-1^7-one
ring closure, isolated yield (other bond, 13-membered ring, PPh3/DEAD, THF, 83.2 mM): 49%

Molecule: 3^4-(4-Methylpiperazin-1-yl)-1^5-((triisopropylsilyl)ethynyl)-1^7,1^8-dihydro-2,6-diaza-1(2,8)-pyrido[2,3-d]pyrimidina-3(1,3)-benzenacyclooctaphane-1^7,7-dione
ring closure, isolated yield (other bond, 13-membered ring, PPh3/DEAD, DCM, 130.0 mM): 38%

Molecule: 3^4-(4-Methylpiperazin-1-yl)-1^5-((triisopropylsilyl)ethynyl)-1^7,1^8-dihydro-4,7-dioxa-2-aza-1(2,8)-pyrido[2,3-d]pyrimidina-3(1,3)-benzenacyclononaphan-1^7-one
ring closure, isolated yield (other bond, 14-membered ring, PPh3/DEAD, THF, 134.0 mM): 29%

Molecule: 3^4-(4-Methylpiperazin-1-yl)-1^5-((triisopropylsilyl)ethynyl)-1^7,1^8-dihydro-4-oxa-2-aza-1(2, 8)-pyrido[2,3-d]pyrimidina-3(1,3)-benzenacyclodecaphan-1^7-one
ring closure, isolated yield (other bond, 15-membered ring, PPh3/DEAD, THF, 158.0 mM): 41%

Molecule: 3^4-(4-Methylpiperazin-1-yl)-1^5-[2-(triisopropylsilyl)ethynyl]-1^7,1^8-dihydro-2,4-diaza-1(2,8)-pyrido[2,3-d]pyrimidine-3(1,3)-benzenacyclooctaphane-1^7,5-dione
ring closure, isolated yield (other bond, 13-membered ring, PPh3/DEAD, THF, 162.0 mM): 62%

Molecule: 3^4-(4-methylpiperazin-1-yl)-1^5-((triisopropylsilyl)ethynyl)-1^7,1^8-dihydro-2,5-diaza-1(2,8)-pyrido[2,3-d]pyrimidina-3(1,3)-benzenacyclooctaphane-1^7,4-dione
ring closure, isolated yield (other bond, 13-membered ring, PPh3/DIAD, THF, 43.7 mM): 20%

Molecule: 3^4-(4-methylpiperazin-1-yl)-1^5-((triisopropylsilyl)ethynyl)-1^7,1^8-dihydro-6-oxa-2-aza-1(2, 8)-pyrido[2,3-d]pyrimidina-3(1,3)-benzenacyclooctaphan-1^7-one
ring closure, isolated yield (other bond, 13-membered ring, PPh3/DEAD, THF, 82.8 mM): 77%

Molecule: 4-Methyl-3^4-(4-methylpiperazin-1-yl)-1^5-((triisopropylsilyl)ethynyl)-1^7,1^8-dihydro-2,4-diaza-1(2,8)-pyrido[2,3-d]pyrimidina-3(1,3)-benzenacyclooctaphane-1^7,5-dione
ring closure, isolated yield (other bond, 13-membered ring, PPh3/DIAD, THF, 158.0 mM): 38%

Molecule: 5-Methyl-3^4-(4-methylpiperazin-1-yl)-1^5-((triisopropylsilyl)ethynyl)-1^7,1^8-dihydro-2,5-diaza-1(2,8)-pyrido[2,3-d]pyrimidina-3(1,3)-benzenacyclooctaphane-1^7,6-dione
ring closure, isolated yield (other bond, 13-membered ring, PPh3/DEAD, THF, 158.0 mM): 75%

IC50 [1]: > 10000 nM | IC50 [2]: > 3000 nM
Molecule: C=Cc1c(-c2ccccc2Cl)c(=O)n(C)c2nc(Nc3ccc(N4CCN(C)CC4)cc3OC)ncc12 [Example 171, 6-(2-chlorophenyl)-5-ethenyl-2-{[2-methoxy-4-(4-methylpiperazin-1-yl)phenyl]amino}-8-methylpyrido[2,3-d]pyrimidin-7-one]

IC50 [3]: > 3000 nM | IC50 [1]: < 1000 nM | IC50 [2]: > 3000 nM
Molecule: C#Cc1cc(=O)n(C2CCCC2)c2nc(Nc3cccc(N(C)[C@H]4C[C@@H](CS(C)(=O)=O)C4)c3)ncc12 [Example 203]

Molecule: (5^1S,5^3R)-1^4-(4-Methylpiperazin-1-yl)-3^5-((triisopropylsilyl)ethynyl)-3^7,3^8-dihydro-7-oxa-2-aza-3(2,8)-pyrido[2,3-d]pyrimidina-1(1,3)-benzena-5(1,3)-cyclopentanacycloheptaphan-3^7-one
ring closure, isolated yield (other bond, 14-membered ring, PPh3/DIAD, THF, 93.0 mM): 17%
